{"source": "patent US20050063935A1", "about": "“Adsorbent for cytokine, method of adsorptive removal, and apparatus adsorptive removal” (priority 2002, published 2005)", "origin": "cited, not measured here", "conditions": "octanol-water system; free ligand compound before immobilization"}
{"smiles": "CCCCN", "note": "[n-butylamine]", "values": [{"measurement": "log P", "value": 0.97}]}
{"smiles": "CCCCCCCCN", "note": "[n-octylamine]", "values": [{"measurement": "log P", "value": 2.90}]}
